# Data: PMC9694544, “Conteltinib (CT-707) in patients with advanced ALK-positive non-small cell lung cancer: a multicenter, open-label, first-in-human phase 1 study” (BMC Medicine, 2022)
# Read-outs that look alike come from different tables or passages of the source.
# How the values were obtained:
# clinical = settings: human, in vivo; for AUC(0-inf): read-out: AUCINF_obs; for Cmax: read-out: Cmax
# Protocol: For single-dose PK parameters, plasma samples were taken at pre-dose and 0.5 h, 1 h, 2 h, 3 h, 4 h, 6 h, 8 h, 12 h, 24 h, 48 h, 72 h, 96 h, 120 h, 144 h, and 168 h post-dose in PK lead-in phase of dose-escalation phase, and plasma samples were also taken at pre-dose and 0.5 h, 1 h, 2 h, 3 h, 4 h, 6 h, 8 h, 12 h, and 24 h post-dose in cycle 1 day 1 of dose-expansion phase. During continuous dosing, serial plasma samples were collected at pre-dose in cycle 1 day 15, pre-dose in cycle 1 day 22, pre-dose and 0.5 h, 1 h, 2 h, 3 h, 4 h, 6 h, 8 h, 12 h, and 24 h post-dose in cycle 1 day 28 for all dose cohorts. The following PK parameters were assessed: area under the concentration-time curve from the time of dosing extrapolated to infinity, based on the last observed concentration (AUCINF_obs); area under the concentration-time curve from the time of dosing to the time of last observation (AUClast); maximum concentration (Cmax); time to maximum concentration (Tmax); elimination half-life (T1/2); and mean residence time from the time of dosing to the time of the last measurable concentration (MRTlast).
# [1] = system: brain metastasis of ALK-positive NSCLC; assay: Intracranial response in patients with measurable brain metastatic lesions; type: in vivo, human
# ALK F1174L = ALK F1174L (Homo sapiens, UniProt Q9UM73, F1174L); assay: ALK enzymatic IC50, F1174L; type: biochemical
# Text: (§1) Supplement 12916_2022_2646_MOESM1_ESM.docx, table 1 | column: ALK Enzymatic IC50 (nM)
# ALK WT = ALK WT (Homo sapiens, UniProt Q9UM73); assay: ALK enzymatic IC50, WT; type: biochemical
# ALK R1275Q = ALK R1275Q (Homo sapiens, UniProt Q9UM73, R1275Q); assay: ALK enzymatic IC50, R1275Q; type: biochemical
# Text: as §1
# ALK G1269S = ALK G1269S (Homo sapiens, UniProt Q9UM73, G1269S); assay: ALK enzymatic IC50, G1269S; type: biochemical
# Text: as §1
# [2] = cycle 1 day 28 of dose-escalation phase, 800 mg (n=2), mean
# [3] = single dose, PK lead-in phase of dose-escalation phase, 50 mg (n=2), mean
# [4] = single dose, PK lead-in phase of dose-escalation phase, 100 mg (n=3), mean
# [5] = single dose, PK lead-in phase of dose-escalation phase, 200 mg (n=3), mean
# [6] = single dose, PK lead-in phase of dose-escalation phase, 300 mg (n=3), mean
# [7] = single dose, PK lead-in phase of dose-escalation phase, 450 mg (n=4), mean
# [8] = single dose, PK lead-in phase of dose-escalation phase, 600 mg (n=7), mean
# [9] = single dose, PK lead-in phase of dose-escalation phase, 800 mg (n=3), mean
smiles,measurement,setting,value
COc1cc(N2CCC(N3CCN(C)CC3)CC2)ccc1Nc1nc2c(c(Nc3ccccc3S(=O)(=O)NC(C)C)n1)CCN2 [Conteltinib],half-life,"clinical; cycle 1 day 28 of dose-escalation phase, 600 mg (n=7), mean, read-out: T1/2 (converted)",45 h
same,Tmax,"clinical; cycle 1 day 28 of dose-escalation phase, 600 mg (n=7), mean, read-out: Tmax",2.5 h
same,AUC(0-t),clinical; [2],5500 ng·h/mL
same,MRT last,clinical; [2],11.6 h
same,AUC(0-inf),clinical; [2],27200 ng·h/mL
same,Cmax,clinical; [2],305 ng/mL
same,half-life,"clinical; cycle 1 day 28 of dose-escalation phase, 800 mg (n=2), mean, read-out: T1/2 (converted)",52.7 h
same,Tmax,"clinical; cycle 1 day 28 of dose-escalation phase, 800 mg (n=2), mean, read-out: Tmax",3.5 h
same,half-life,"clinical; multiple-dose administration, read-out: mean T1/2 across dose cohorts",26.3 to 352 h
same,Tmax,"clinical; multiple-dose administration, read-out: mean Tmax across dose cohorts",1.5 to 4.3 h
same,AUC(0-t),clinical; [3],125 ng·h/mL
same,MRT last,clinical; [3],8.1 h
same,AUC(0-inf),clinical; [3],206 ng·h/mL
same,Cmax,clinical; [3],16.3 ng/mL
same,half-life,"clinical; single dose, PK lead-in phase of dose-escalation phase, 50 mg (n=2), mean, read-out: T1/2 (converted)",22.5 h
same,Tmax,"clinical; single dose, PK lead-in phase of dose-escalation phase, 50 mg (n=2), mean, read-out: Tmax",2 h
same,AUC(0-t),clinical; [4],732 ng·h/mL
same,MRT last,clinical; [4],30.3 h
same,AUC(0-inf),clinical; [4],1050 ng·h/mL
same,Cmax,clinical; [4],69 ng/mL
same,half-life,"clinical; single dose, PK lead-in phase of dose-escalation phase, 100 mg (n=3), mean, read-out: T1/2 (converted)",90.2 h
same,Tmax,"clinical; single dose, PK lead-in phase of dose-escalation phase, 100 mg (n=3), mean, read-out: Tmax",2.8 h
same,AUC(0-t),clinical; [5],2550 ng·h/mL
same,MRT last,clinical; [5],47.4 h
same,AUC(0-inf),clinical; [5],3110 ng·h/mL
same,Cmax,clinical; [5],140 ng/mL
same,half-life,"clinical; single dose, PK lead-in phase of dose-escalation phase, 200 mg (n=3), mean, read-out: T1/2 (converted)",83.5 h
same,Tmax,"clinical; single dose, PK lead-in phase of dose-escalation phase, 200 mg (n=3), mean, read-out: Tmax",2.7 h
same,AUC(0-t),clinical; [6],4340 ng·h/mL
same,MRT last,clinical; [6],46.2 h
same,AUC(0-inf),clinical; [6],5110 ng·h/mL
same,Cmax,clinical; [6],246 ng/mL
same,half-life,"clinical; single dose, PK lead-in phase of dose-escalation phase, 300 mg (n=3), mean, read-out: T1/2 (converted)",78.5 h
same,Tmax,"clinical; single dose, PK lead-in phase of dose-escalation phase, 300 mg (n=3), mean, read-out: Tmax",2.5 h
same,AUC(0-t),clinical; [7],9880 ng·h/mL
same,MRT last,clinical; [7],40.5 h
same,AUC(0-inf),clinical; [7],11500 ng·h/mL
same,Cmax,clinical; [7],544 ng/mL
same,half-life,"clinical; single dose, PK lead-in phase of dose-escalation phase, 450 mg (n=4), mean, read-out: T1/2 (converted)",78.7 h
same,Tmax,"clinical; single dose, PK lead-in phase of dose-escalation phase, 450 mg (n=4), mean, read-out: Tmax",3.3 h
same,AUC(0-t),clinical; [8],9640 ng·h/mL
same,MRT last,clinical; [8],43.3 h
same,AUC(0-inf),clinical; [8],11200 ng·h/mL
same,Cmax,clinical; [8],452 ng/mL
same,half-life,"clinical; single dose, PK lead-in phase of dose-escalation phase, 600 mg (n=7), mean, read-out: T1/2 (converted)",78.7 h
same,Tmax,"clinical; single dose, PK lead-in phase of dose-escalation phase, 600 mg (n=7), mean, read-out: Tmax",3.9 h
same,AUC(0-t),clinical; [9],9820 ng·h/mL
same,MRT last,clinical; [9],42 h
same,AUC(0-inf),clinical; [9],11200 ng·h/mL
same,Cmax,clinical; [9],421 ng/mL
same,half-life,"clinical; single dose, PK lead-in phase of dose-escalation phase, 800 mg (n=3), mean, read-out: T1/2 (converted)",77.2 h
same,Tmax,"clinical; single dose, PK lead-in phase of dose-escalation phase, 800 mg (n=3), mean, read-out: Tmax",3.7 h
same,half-life,"clinical; single-dose administration, read-out: mean T1/2 across dose cohorts",16.7 to 90.2 h
same,Tmax,"clinical; single-dose administration, read-out: mean Tmax across dose cohorts",2 to 4.6 h
same,MRT last,"clinical; cycle 1 day 28 of dose-expansion phase, 600 mg (n=10), mean",10.9 h
same,half-life,"clinical; single dose, cycle 1 day 1 of dose-expansion phase, 450 mg (n=10), mean, read-out: T1/2 (converted)",23.4 h
same,Intracranial DCR (95% CI),[1]; 300 mg BID (n=1),100.0% (2.5-100.0)
same,Intracranial ORR (95% CI),[1]; 300 mg BID (n=1),0.0% (0.0-97.5)
same,Intracranial DCR (95% CI),[1]; 450 mg QD (n=2),100.0% (15.8-100.0)
same,Intracranial ORR (95% CI),[1]; 450 mg QD (n=2),50% (1.3-98.7)
same,Intracranial DCR (95% CI),[1]; 600 mg QD (n=3),66.7% (9.4-99.2)
same,Intracranial ORR (95% CI),[1]; 600 mg QD (n=3),33.3% (0.8-90.6)
same,IC50,ALK F1174L,4.3 nM
same,IC50,ALK WT,1.5 nM
same,IC50,ALK R1275Q,1.2 nM
same,IC50,ALK G1269S,8.4 nM
